Data reported in PMC8781550, “The Effect of pH and Sodium Caseinate on the Aqueous Solubility, Stability, and Crystallinity of Rutin towards Concentrated Colloidally Stable Particles for the Incorporation into Functional Foods” (Molecules, 2022).

Tests used:
[1] = Crystallinity of dried rutin at each pH (XRD); assay type: physicochemical
Procedure: To study the crystallinity of rutin at each pH, samples of rutin at each pH were stored in a desiccator with silica beads (25 °C) to dry and crystallize. The dried materials were ground using a mortar and pestle and then were analysed for the degree of crystallinity at 20.0 °C using a Rigaku Rapid image-plate detector (Rigaku, The Woodlands, TX, USA) set at 127.40 mm. The Cu Kα radiation (λ = 1.540562 Å) was generated by a Rigaku MicroMax007 microfocus (rotating anode generator; Rigaku, The Woodlands, TX, USA) and an Osmic-Rigaku metal multi-layer optic device (Rigaku, USA) was used for focusing and monochromation. Samples were mounted in Hampton CryoLoops (Hampton Research, Aliso Viejo, CA, USA), and data collection was under the control of RAPID II software (Version 2.4.2, Rigaku, USA). The data were background corrected and converted to a line profile with 2DP programme (Version 1.0.3.4, Rigaku, USA), and the resulting diffractograms were compared using CrystalDiffract software (Version 6.5.5, CrystalMaker Software Ltd., Oxfordshire, UK). A 2θ angle range of 5° to 100° was used for the analysis of all the samples.

[2] = Chemical stability of rutin at alkaline pH (HPLC); assay type: physicochemical; details: rutin 1% w/v dissolved at pH 11.0 and kept for 30 min
[3] = parameters: method as in doi:10.1016/j.foodhyd.2019.05.032; details: cited from earlier work
[4] = Aqueous solubility (recovery) of rutin at various pH (centrifugation, HPLC of supernatant); assay type: physicochemical
Procedure: Rutin was mixed with Milli-Q® (MilliporeSigma, Burlington, MA, USA) water at various concentrations (0.01 to 10% w/v) and the pH of the mixtures increased gradually (while stirring at 300 rpm) until the full dissolution was achieved. […] Then, the pH was increased further until the complete dissolution. […] Samples were taken at each pH point (i.e., pH 1–11) and at each concentration of rutin.
In order to determine the optimum amount of both rutin and NaCas to achieve the best loading, various concentrations of rutin (0.01–4% w/v) were dissolved in a solution of NaCas (0.2–8% w/v) at pH 11, which was then acidified down to pH 6, where the precipitates were formed. A duration of 15 min between each pH adjustment was allowed, and samples were taken along the process at every pH point (i.e., pH 11, 9, 8, 7, and 6; pH below 6 was not considered as the sample withdrawal was not practical due to the co-precipitation of NaCas and rutin). The withdrawn samples were left for 30 min for the complete formation of the possible precipitates. Each sample was then divided into two equal parts; the first part was centrifuged (3000× g, 20 °C, 10 min) in the Amicon Ultra-15 Centrifugal Filter Units containing a cellulose membrane with a molecular weight cut-off of […] (Ultracel-100K, Millipore, Burlington, MA, USA) to remove both precipitates and colloidally stable complexes, while the second part was simply filtered using a 0.45 µm membrane (Millipore) to remove the precipitates only. The concentration of rutin in the ultrafiltrates, as well as the filtrates (the second part), was determined using HPLC analysis, and the rutin recovery% was calculated correspondingly. As the control, the same concentration of rutin (1%) was also treated and analysed the same way as the rutin–NaCas mixture. In this study, for simplicity, the recovery % of rutin is referred to as its solubility.

[5] = parameters: method as in PMID 25496805, PMID 20201551; details: cited from earlier work
[6] = cited from earlier work

C[C@@H]1O[C@@H](OC[C@H]2O[C@@H](Oc3c(-c4ccc(O)c(O)c4)oc4cc(O)cc(O)c4c3=O)[C@H](O)[C@@H](O)[C@@H]2O)[C@H](O)[C@H](O)[C@H]1O [rutin]
Crystallinity of dried rutin particles (XRD) ([1]; pH 11 and 10): amorphous
Crystallinity of dried rutin particles (XRD) ([1]; pH < 8): crystalline form
Crystallinity of dried rutin particles (XRD) ([1]; pH close to 1.0): crystalline rutin was not present
Decrease in initial concentration of rutin (chemical stability) [2]: ~10%
Solubility in ethanol [3]: about 4 % w/v
Aqueous solubility of rutin ([4]; 0.01% w/v rutin in water, regardless of the pH): most of the rutin was soluble
Aqueous solubility (recovery): fraction of rutin soluble ([4]; dispersion containing 5% rutin, pH 9): about 90%
Concentration of rutin that could be dissolved ([4]; pH 11.0): 10 % (w/v)
Solubility (recovery) of rutin ([4]; pH < 6, 1% w/v rutin, regardless of association with NaCas): almost all rutin was precipitated
logP [5]: 0.15
Decomposition of rutin ([6]; 0.2 M NaOH, with or without beta-cyclodextrin): slow decomposition
Rutin concentration remaining ([6]; after 5 h, pH constantly adjusted to 8): approximately 20%
Rutin concentration ([6]; weak acidic conditions (pH 5)): remained almost unchanged
